Source: patent publication US9833465B2 (priority 2013, dated 2017)
Like-named read-outs stand apart in the source and are kept apart here.

Assays:
Format in all cases: cell-based, human
HCT-116 colon carcinoma = assay: cells; settings: HCT116 colon cancer cells, 3-6 days, crystal violet, triplicate
Protocol: Compounds were tested in HTC 116 cell line, which is an art-recognized isogenic human disease model predictive of activity in human patients. They were tested according to the following standard protocol:
(§1) Antiproliferative assay: The cytotoxicities of arimetamycins A (1), B (2) and C (3) were evaluated using four human cancer cell lines: HCT-116 colon carcinoma (ATCC; CCL-247) [M. G. Brattain, W. D. Fine, F. M. Khaled, J. Thompson, D. E. Brattain, Cancer Res 1981, 41, 1751-1756], WiDr colorectal adenocarcinoma (ATCC; CCL-218) [P. Noguchi, R. Wallace, J. Johnson, E. M. Earley, S. O'Brien, S. Ferrone, M. A. Pellegrino, J. Milstien, C. Needy, W. Browne, J. Petricciani, In vitro 1979, 15, 401-408], MDR-MB-231 breast adenocarcinoma (ATCC; HTB-26) [B. R. Brinkley, P. T. Beall, L. J. Wible, M. L. Mace, D. S. Turner, R. M. Cailleau, Cancer Res 1980, 40, 3118-3129] and H69AR multidrug resistant lung carcinoma (ATCC; CRL-11351) [S. E. Mirski, J. H. Gerlach, S. P. Cole, Cancer Res 1987, 47, 2594-2598] cell lines. HCT-116 and H69AR cells were grown in McCoy's 5A Modified Medium (Gibco) supplemented with 10% (v/v) FBS and RPMI-1640 (ATCC) supplemented with 20% (v/v) FBS, respectively. WiDr and MDA-MB-231 cells were grown in DMEM Medium (Gibco) supplemented with 10% (v/v) FBS. All the cell lines were incubated at 37° C. with 5% CO2. Cells in log phase growth were harvested by trypsinization. Cells were seeded into 96-well plates (HCT-116: 1,000 cells/well, WiDr: 3,000 cells/well, MDA-MB-231: 8,000 cells/well, H69AR: 25,000 cells/well) and incubated overnight at 37° C. with 5% CO2. Compounds 1-3 (in DMSO) were sequentially diluted (3-fold starting at 50 μg/mL) across a 96-well plate and 100 μL was transferred to the appropriate wells in the assay plates. Doxorubicin (Sigma-Aldrich) and daunorubicin (Sigma-Aldrich) were used as positive controls and DMSO was used as a negative control. The plates were incubated at 37° C. for 3-6 days depending on the growth rate and then evaluated for viability using either an MTT (3-(4,5-Dimethylthiazol-2-yl)-2,5-diphenyltetrazolium bromide) (MDR-MB-231 and H69AR) or crystal violet (HCT-116 and WiDr) based colorimetric assay [R. Supino, Methods in molecular biology 1995, 43, 137-149; bD. Zivadinovic, B. Gametchu, C. S. Watson, Breast Cancer Res 2005, 7, R101-112]. Cell viability is recorded based on the percent stain present in each well relative to no drug DMSO control wells. Assays were run in triplicate.

[1] = system: H69AR multidrug resistant lung carcinoma; assay: cells; settings: multidrug resistant lung cancer cells, 3-6 days, MTT, triplicate, read-out: IC50 H69AR Lung/MDR
Protocol: as §1

[2] = system: MDA-MB-231 breast adenocarcinoma; assay: cells; settings: breast cancer cells, 3-6 days, MTT, triplicate, read-out: IC50 MDSMB231 Breast
Protocol: as §1

[3] = system: WiDr colorectal adenocarcinoma; assay: cells; settings: WiDr colon cancer cells, 3-6 days, crystal violet, triplicate
Protocol: as §1

[4] = system: representative colon, lung and breast cancer cell lines; assay: Anticancer activity against colon, lung and breast cancer cell lines (summary over the panel); settings: for anticancer activity (in words): colon, lung (MDR) and breast cancer cell lines
Protocol: Arimetamycins A-C (1-3) were evaluated for anticancer activity against representative colon, lung and breast cancer cell lines as described below. The lung cancer line (H69AR) is multidrug resistant (MDR), showing high-level resistance to anthracyclines (50-fold) as well as many other anticancer agents including vincristine, etoposide and mitoxantrone. […] P-glycoprotein expression-dependent MDR is the most clinically significant resistance mechanism affecting the utility of anthracyclines. Compounds of the genus described herein are the first anthracyclines from Streptomyces culture that appear effective against MDR cancers.
as §1

`COc1cc(O)c2c(c1)C(=O)c1cc3c(c(O)c1C2=O)[C@@H](O[C@H]1C[C@](C)(N(C)C)[C@H](O[C@H]2C[C@](C)(O)[C@H](N(C)C)[C@H](C)O2)[C@H](C)O1)[C@H](OC)[C@](C)(O)C3=O` [Arimetamycin A(1), arimetamycin A] was tested, and the IC50 (HCT-116 colon carcinoma) was 0.0025 µM, the IC50 [1] was 0.067 µM and the IC50 [2] was 0.164 µM. For the same compound, the IC50 [3] was 0.0005 µM, the “IC50 against all cell lines (in words)” value ([4]; all cell lines including the H69AR MDR cell line) was “nanomolar” and the “anticancer activity (in words)” value [4] was “highly active against both MDR and drug sensitive cell lines”. The “IC50 fold lower than doxorubicin or daunorubicin” value ([4]; compared with either doxorubicin or daunorubicin) was 2-10 fold.

`COc1cc(O)c2c(c1)C(=O)c1cc3c(c(O)c1C2=O)[C@@H](O[C@H]1C[C@H](O)[C@@H](O)[C@H](C)O1)[C@H](OC)[C@](C)(O)C3=O` [Arimetamycin B(2), arimetamycin B] was tested, and the IC50 (HCT-116 colon carcinoma) was 1.8 µM, the IC50 [1] was 47.1 µM and the IC50 [2] was 29.6 µM. The IC50 [3] was 7.5 µM and the “anticancer activity (in words)” value [4] was “moderate activity”.

Compound `COc1cc(O)c2c(c1)C(=O)c1cc3c(c(O)c1C2=O)[C@@H](O[C@H]1C[C@H](OC)[C@@H](O)[C@H](C)O1)[C@H](OC)[C@](C)(O)C3=O` [Arimetamycin C(3), arimetamycin C] has an IC50 (HCT-116 colon carcinoma) of 1.4 µM, an IC50 [1] of 18.8 µM and an IC50 [2] of 27.7 µM. The IC50 [3] was 5.2 µM and the “anticancer activity (in words)” value [4] was “moderate activity”.

Work on `COc1cccc2c1C(=O)c1c(O)c3c(c(O)c1C2=O)C[C@@](O)(C(C)=O)C[C@@H]3O[C@H]1C[C@H](N)[C@H](O)[C@H](C)O1` [Daunorubicin, daunorubicin, reference compound] yielded an IC50 (HCT-116 colon carcinoma) of 0.0068 µM, an IC50 [1] of 4.8 µM and an IC50 [2] of 0.33 µM. The IC50 [3] was 0.0055 µM.

`COc1cccc2c1C(=O)c1c(O)c3c(c(O)c1C2=O)C[C@@](O)(C(=O)CO)C[C@@H]3O[C@H]1C[C@H](N)[C@H](O)[C@H](C)O1` [Doxorubicin, doxorubicin, reference compound] gave an IC50 (HCT-116 colon carcinoma; Homo sapiens, HCT-116) of 0.0225 µM, an IC50 ([1]; Homo sapiens, H69AR) of 18.4 µM and an IC50 ([2]; Homo sapiens, MDA-MB-231) of 0.97 µM. For the same compound, the IC50 ([3]; Homo sapiens) was 0.0309 µM.
